What was measured:
[1] = Intrinsic clearance in mouse hepatocytes assessed per million of cells; type: ADME, cell-based, Hepatocyte; conditions: read-out: CLH
[2] = Volume of distribution at steady state in dog; type: ADME, organism-based, Canis lupus familiaris; conditions: in vivo, read-out: Vdss
[3] = Half life in dog; type: ADME, organism-based, Canis lupus familiaris; conditions: in vivo
[4] = Clearance in mouse; type: ADME, organism-based; conditions: in vivo
[5] = Intrinsic clearance in rat hepatocytes assessed per million of cells; type: ADME, cell-based, Hepatocyte; conditions: read-out: CLH
[6] = Clearance in rat; type: ADME, organism-based; conditions: in vivo
[7] = Half life in rat; type: ADME, organism-based; conditions: in vivo
[8] = Oral bioavailability in dog; type: ADME, organism-based, Canis lupus familiaris; conditions: in vivo
[9] = Intrinsic clearance in dog hepatocytes assessed per million of cells; type: ADME, cell-based, Canis lupus familiaris, Hepatocyte; conditions: read-out: CLH
[10] = Oral bioavailability in mouse; type: ADME, organism-based; conditions: in vivo
in vitro = conditions: human, hepatocytes
[11] = Half life in mouse; type: ADME, organism-based; conditions: in vivo
[12] = Oral bioavailability in rat; type: ADME, organism-based; conditions: in vivo
physchem = conditions: octanol/water

## NC1(C(=O)NCc2ccc(Cl)cc2)CCN(c2ncnc3[nH]ccc23)CC1
[1]
  hepatocyte CLint: 10 µL/min/1e6 cells
[2]
  Vd: 0.6 L/kg
[3]
  half-life: 180 min
[4]
  clearance: 42 mL/min/kg
[5]
  hepatocyte CLint: 19 µL/min/1e6 cells
[6]
  clearance: 48 mL/min/kg
[7]
  half-life: 138 min
[8]
  bioavailability: 70%
[9]
  hepatocyte CLint: 6 µL/min/1e6 cells
[10]
  bioavailability: 88%
In vitro
  hepatocyte CLint: 15 µL/min/1e6 cells
[11]
  half-life: 48 min
[12]
  bioavailability: 56%

## NC(=O)C(NC(=O)C1(N)CCN(c2ncnc3[nH]ccc23)CC1)c1ccc(Cl)cc1 (racemic)
physchem
  logD: 2.2

## CN(C)C(=O)CC(NC(=O)C1(N)CCN(c2ncnc3[nH]ccc23)CC1)c1ccc(Cl)cc1 (racemic)
physchem
  logD: 2.4

## NC1(C(=O)NC(CCCO)c2ccc(Cl)cc2)CCN(c2ncnc3[nH]ccc23)CC1 (racemic)
physchem
  logD: 2.8

## NC1(C(=O)NC(CCCN2CCCC2)c2ccc(Cl)cc2)CCN(c2ncnc3[nH]ccc23)CC1 (racemic)
physchem
  logD: 1.3

## NC1(C(=O)NC(c2ccccc2)c2ccc(Cl)cc2)CCN(c2ncnc3[nH]ccc23)CC1 (racemic)
physchem
  logD: 4.1

## CC(NC(=O)C1(N)CCN(c2ncnc3[nH]ccc23)CC1)c1ccccc1 (racemic)
physchem
  logD: 2.2

## NC1(C(=O)NC(c2ccc(Cl)cc2)C2CC2)CCN(c2ncnc3[nH]ccc23)CC1 (racemic)
physchem
  logD: 3.4

## COc1ccc(C(C)NC(=O)C2(N)CCN(c3ncnc4[nH]ccc34)CC2)cc1OC (racemic)
physchem
  logD: 1.8

## NC1(C(=O)NC(CO)c2ccc(Cl)cc2)CCN(c2ncnc3[nH]ccc23)CC1 (racemic)
physchem
  logD: 2.4

## C[C@@H](NC(=O)C1(N)CCN(c2ncnc3[nH]ccc23)CC1)c1ccc(Cl)cc1
physchem
  logD: 3.3

## CC(NC(=O)C1(N)CCN(c2ncnc3[nH]ccc23)CC1)c1ccc(S(C)(=O)=O)cc1 (racemic)
physchem
  logD: 1

## COCCC(NC(=O)C1(N)CCN(c2ncnc3[nH]ccc23)CC1)c1ccc(Cl)cc1 (racemic)
physchem
  logD: 3

## NC1(C(=O)NC(CCCN2CCOCC2)c2ccc(Cl)cc2)CCN(c2ncnc3[nH]ccc23)CC1 (racemic)
physchem
  logD: 2.7

## CS(=O)(=O)NCC(NC(=O)C1(N)CCN(c2ncnc3[nH]ccc23)CC1)c1ccc(Cl)cc1 (racemic)
physchem
  logD: 2.1

## CN(C)CCCC(NC(=O)C1(N)CCN(c2ncnc3[nH]ccc23)CC1)c1ccc(Cl)cc1 (racemic)
physchem
  logD: 1.4

## CC(=O)NCC(NC(=O)C1(N)CCN(c2ncnc3[nH]ccc23)CC1)c1ccc(Cl)cc1 (racemic)
physchem
  logD: 2.4

## CC(NC(=O)C1(N)CCN(c2ncnc3[nH]ccc23)CC1)c1ccccn1 (racemic)
physchem
  logD: 1.3

## NC1(C(=O)N[C@@H](CCN2CCCCC2)c2ccc(Cl)cc2)CCN(c2ncnc3[nH]ccc23)CC1 (racemic)
physchem
  logD: 2.4

## CCC(NC(=O)C1(N)CCN(c2ncnc3[nH]ccc23)CC1)c1ccc(Cl)cc1 (racemic)
physchem
  logD: 3.5

## C[C@H](NC(=O)C1(N)CCN(c2ncnc3[nH]ccc23)CC1)c1ccc(Cl)cc1
physchem
  logD: 2.7

## CC(NC(=O)C1(N)CCN(c2ncnc3[nH]ccc23)CC1)c1ccc(Cl)cc1 (racemic)
physchem
  logD: 2.7

## NC1(C(=O)NC(CS(N)(=O)=O)c2ccc(Cl)cc2)CCN(c2ncnc3[nH]ccc23)CC1 (racemic)
physchem
  logD: 2.2

## CC(NC(=O)C1(N)CCN(c2ncnc3[nH]ccc23)CC1)c1ccc(F)cc1 (racemic)
physchem
  logD: 2.4

## CS(=O)(=O)NCCC(NC(=O)C1(N)CCN(c2ncnc3[nH]ccc23)CC1)c1ccc(Cl)cc1 (racemic)
physchem
  logD: 2.2
